For one experiment, the target named is IKKε (Homo sapiens (Human), UniProt Q14164). Nature of the experiment: IKKε TR-FRET enzymatic assay. As to conditions: read-out: IKKe IC50. Format: biochemical.
The target of another experiment is hJAK2 (Homo sapiens (Human), UniProt O60674). Nature of the experiment: hJAK2 LANCE TR-FRET enzymatic assay. The format is biochemical. As to conditions: read-out: JAK2 IC50. In general terms: In TR-FRET formats the signal depends on donor and acceptor labels being close together.
Another experiment addresses TBK1 (Homo sapiens (Human), UniProt Q9UHD2). Nature of the experiment: TBK1 TR-FRET enzymatic assay.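 Also: phosphorylation of a biotinylated Ser/Thr peptide by purified full-length recombinant TBK1, read by TR-FRET after 240 min at 25 °C, IC50 is the geometric mean of at least four runs.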

pIC50: −log10 of the molar value. Some results are limits rather than exact numbers.

One may read the pIC50 as the negative decadic logarithm of the IC50, by convention in mol/L.

hJAK2, sequence (O60674 whole entry): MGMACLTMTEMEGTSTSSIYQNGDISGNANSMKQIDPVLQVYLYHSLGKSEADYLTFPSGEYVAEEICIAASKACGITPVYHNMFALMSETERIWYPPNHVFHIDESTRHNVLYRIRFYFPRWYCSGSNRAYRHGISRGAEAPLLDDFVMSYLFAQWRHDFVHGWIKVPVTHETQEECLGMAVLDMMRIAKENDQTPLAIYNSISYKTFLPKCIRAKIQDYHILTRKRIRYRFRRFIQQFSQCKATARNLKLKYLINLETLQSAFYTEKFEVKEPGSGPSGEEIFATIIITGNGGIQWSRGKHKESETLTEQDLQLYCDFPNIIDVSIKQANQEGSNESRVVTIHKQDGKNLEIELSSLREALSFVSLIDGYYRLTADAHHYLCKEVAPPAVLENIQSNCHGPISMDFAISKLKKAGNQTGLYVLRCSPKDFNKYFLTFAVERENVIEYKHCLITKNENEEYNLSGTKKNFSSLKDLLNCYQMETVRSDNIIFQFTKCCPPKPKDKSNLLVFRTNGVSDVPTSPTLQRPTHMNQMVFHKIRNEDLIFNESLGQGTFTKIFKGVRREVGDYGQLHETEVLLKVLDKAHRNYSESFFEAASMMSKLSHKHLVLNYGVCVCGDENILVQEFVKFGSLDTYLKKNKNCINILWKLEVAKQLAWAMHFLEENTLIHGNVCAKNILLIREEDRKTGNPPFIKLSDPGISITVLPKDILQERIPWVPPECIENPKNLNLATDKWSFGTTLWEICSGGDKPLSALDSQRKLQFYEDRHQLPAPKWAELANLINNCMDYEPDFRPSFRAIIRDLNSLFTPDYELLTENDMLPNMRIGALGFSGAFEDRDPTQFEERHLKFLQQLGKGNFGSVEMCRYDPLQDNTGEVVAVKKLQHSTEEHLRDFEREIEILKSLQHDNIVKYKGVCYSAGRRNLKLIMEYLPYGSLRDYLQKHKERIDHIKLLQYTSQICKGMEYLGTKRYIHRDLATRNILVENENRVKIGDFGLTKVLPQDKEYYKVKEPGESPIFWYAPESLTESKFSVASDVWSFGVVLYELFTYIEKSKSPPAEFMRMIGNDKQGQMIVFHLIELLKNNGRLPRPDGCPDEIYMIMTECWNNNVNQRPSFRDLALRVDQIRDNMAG
IKKε, sequence (Q14164 whole entry): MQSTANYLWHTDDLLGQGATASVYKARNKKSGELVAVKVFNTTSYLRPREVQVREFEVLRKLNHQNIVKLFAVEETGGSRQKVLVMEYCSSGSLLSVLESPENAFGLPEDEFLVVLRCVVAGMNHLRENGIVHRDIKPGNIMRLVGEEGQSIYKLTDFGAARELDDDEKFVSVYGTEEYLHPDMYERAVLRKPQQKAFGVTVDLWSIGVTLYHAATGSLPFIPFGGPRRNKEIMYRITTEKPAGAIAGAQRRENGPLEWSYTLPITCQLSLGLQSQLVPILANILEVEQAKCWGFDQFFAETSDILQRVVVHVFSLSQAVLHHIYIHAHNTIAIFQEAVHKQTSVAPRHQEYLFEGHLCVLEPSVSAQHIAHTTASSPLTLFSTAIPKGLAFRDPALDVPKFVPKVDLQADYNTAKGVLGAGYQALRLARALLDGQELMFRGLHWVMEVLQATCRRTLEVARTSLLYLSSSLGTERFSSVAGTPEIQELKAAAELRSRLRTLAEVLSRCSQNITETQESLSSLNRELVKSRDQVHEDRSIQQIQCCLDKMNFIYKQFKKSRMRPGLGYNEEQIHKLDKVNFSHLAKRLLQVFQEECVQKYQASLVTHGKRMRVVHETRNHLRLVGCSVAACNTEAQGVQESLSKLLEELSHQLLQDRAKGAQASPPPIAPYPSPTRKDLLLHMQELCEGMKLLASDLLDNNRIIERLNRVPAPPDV
TBK1, sequence (Q9UHD2 whole entry): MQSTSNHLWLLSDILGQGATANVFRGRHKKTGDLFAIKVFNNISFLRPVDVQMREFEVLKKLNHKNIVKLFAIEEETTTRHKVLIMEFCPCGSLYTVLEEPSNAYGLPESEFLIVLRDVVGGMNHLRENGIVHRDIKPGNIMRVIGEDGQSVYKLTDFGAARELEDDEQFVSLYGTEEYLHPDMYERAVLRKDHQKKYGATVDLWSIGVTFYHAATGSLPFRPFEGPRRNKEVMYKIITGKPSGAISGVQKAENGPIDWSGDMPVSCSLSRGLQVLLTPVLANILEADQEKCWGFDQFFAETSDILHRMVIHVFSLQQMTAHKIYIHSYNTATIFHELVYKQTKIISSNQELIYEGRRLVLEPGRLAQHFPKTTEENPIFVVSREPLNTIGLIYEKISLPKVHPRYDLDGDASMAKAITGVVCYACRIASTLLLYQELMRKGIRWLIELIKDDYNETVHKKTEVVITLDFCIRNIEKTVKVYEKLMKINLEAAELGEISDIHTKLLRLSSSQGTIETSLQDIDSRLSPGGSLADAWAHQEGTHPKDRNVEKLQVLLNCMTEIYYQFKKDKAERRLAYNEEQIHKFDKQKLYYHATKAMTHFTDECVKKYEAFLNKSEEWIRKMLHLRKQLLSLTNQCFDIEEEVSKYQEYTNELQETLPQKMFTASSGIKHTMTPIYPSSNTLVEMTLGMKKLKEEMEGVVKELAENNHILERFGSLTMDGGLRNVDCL

`Cc1nn(C)c2cc(Nc3ncnc(-c4ccc(O[C@H]5CCN(C(=O)[C@H](C)O)C[C@H]5F)c(C#N)c4)n3)ccc12` [Example 347, 5-(4-((1,3-dimethyl-1H-indazol-6-yl)amino)-1,3,5-triazin-2-yl)-2-(((3R,4S)-3-fluoro-1-((S)-2-hydroxypropanoyl)piperidin-4-yl)oxy)benzonitrile]: the pIC50 is 8.30 on IKKε, not above 6.00 on hJAK2 and 8.40 against TBK1.

Turning to `N#Cc1cc(-c2ncnc(Nc3ccc(N4CCN(C5COC5)CC4)cc3)n2)ccc1O[C@H]1CCN(C(=O)C(O)CO)C[C@H]1F` (stereo partly drawn) [Example 348, 2-(((3R,4S)-1-(2,3-dihydroxypropanoyl)-3-fluoropiperidin-4-yl)oxy)-5-(4-((4-(4-(oxetan-3-yl)piperazin-1-yl)phenyl)amino)-1,3,5-triazin-2-yl)benzonitrile], the negative logarithm of the IC50 (pIC50) was 8.52 at IKKε, 6.79 on hJAK2 and 8.40 at TBK1.

As to `CC(C)n1cc(Nc2ncnc(-c3ccc(O[C@H]4CCN(C(=O)CO)C[C@H]4F)c(C#N)c3)n2)cn1` [Example 349, 2-(((3R,4S)-3-fluoro-1-(2-hydroxyacetyl)piperidin-4-yl)oxy)-5-(4-((1-isopropyl-1H-pyrazol-4-yl)amino)-1,3,5-triazin-2-yl)benzonitrile], the figures for the negative-log IC50 (pIC50) on IKKε, at hJAK2 and against TBK1 were 8.70, 7.01 and 8.70, respectively.

As to `CC(C)n1cc(Nc2ncnc(-c3ccc(O[C@H]4CCN(C(=O)[C@H](C)O)C[C@H]4F)c(C#N)c3)n2)cn1` [Example 350, 2-(((3R,4S)-3-fluoro-1-((S)-2-hydroxypropanoyl)piperidin-4-yl)oxy)-5-(4-((1-isopropyl-1H-pyrazol-4-yl)amino)-1,3,5-triazin-2-yl)benzonitrile], the negative-log IC50 (pIC50) on IKKε is 8.30; at hJAK2 it was 6.64; against TBK1, 8.52.

Consider `CCn1cc(Nc2ncnc(-c3ccc(O[C@H]4CCN(C(=O)[C@H](C)O)C[C@H]4F)c(C#N)c3)n2)cn1` [Example 351, 5-(4-((1-ethyl-1H-pyrazol-4-yl)amino)-1,3,5-triazin-2-yl)-2-(((3R,4S)-3-fluoro-1-((S)-2-hydroxypropanoyl)piperidin-4-yl)oxy)benzonitrile], for which the negative-log IC50 (pIC50) is 8.05 at IKKε, 6.18 at hJAK2 and 8.22 against TBK1.

Turning to `C[C@H](O)C(=O)N1CC[C@H](Oc2ccc(-c3ncnc(Nc4cnn(CC(F)F)c4)n3)cc2C#N)[C@H](F)C1` [Example 352, 5-(4-((1-(2,2-difluoroethyl)-1H-pyrazol-4-yl)amino)-1,3,5-triazin-2-yl)-2-(((3R,4S)-3-fluoro-1-((S)-2-hydroxypropanoyl)piperidin-4-yl)oxy)benzonitrile], the results for the negative-log IC50 (pIC50) on IKKε, at hJAK2 and against TBK1 were 8.40, not above 6.00 and 8.40, respectively.

With `C[C@H](O)C(=O)N1CC[C@H](Oc2ccc(-c3ncnc(Nc4cnn(C5COC5)c4)n3)cc2C#N)[C@H](F)C1` [Example 353, 2-(((3R,4S)-3-fluoro-1-((S)-2-hydroxypropanoyl)piperidin-4-yl)oxy)-5-(4-((1-(oxetan-3-yl)-1H-pyrazol-4-yl)amino)-1,3,5-triazin-2-yl)benzonitrile], the pIC50 at IKKε was 8.00; at hJAK2, 6.03; against TBK1, 8.15.

Take `C[C@H](O)C(=O)N1CC[C@H](Oc2ccc(-c3ncnc(Nc4cnn(C5CCOCC5)c4)n3)cc2C#N)[C@H](F)C1` [Example 354, 2-(((3R,4S)-3-fluoro-1-((S)-2-hydroxypropanoyl)piperidin-4-yl)oxy)-5-(4-((1-(tetrahydro-2H-pyran-4-yl)-1H-pyrazol-4-yl)amino)-1,3,5-triazin-2-yl)benzonitrile]: the pIC50 at IKKε was 8.30; on hJAK2 it was 6.51; on TBK1 it was 8.22.

The values are drawn from patent publication US10040781B2, “Tank-binding kinase inhibitor compounds” (Gilead Sciences, Inc., priority 2014, dated 2018).
